Read-outs that look alike come from different tables or passages of the source.
Tests used:
EHMT1 = target: T1, EHMT1 (Homo sapiens, UniProt Q9H9B1); assay: EHMT1 PEP; format: biochemical
T1 sequence (Q9H9B1 1-1298): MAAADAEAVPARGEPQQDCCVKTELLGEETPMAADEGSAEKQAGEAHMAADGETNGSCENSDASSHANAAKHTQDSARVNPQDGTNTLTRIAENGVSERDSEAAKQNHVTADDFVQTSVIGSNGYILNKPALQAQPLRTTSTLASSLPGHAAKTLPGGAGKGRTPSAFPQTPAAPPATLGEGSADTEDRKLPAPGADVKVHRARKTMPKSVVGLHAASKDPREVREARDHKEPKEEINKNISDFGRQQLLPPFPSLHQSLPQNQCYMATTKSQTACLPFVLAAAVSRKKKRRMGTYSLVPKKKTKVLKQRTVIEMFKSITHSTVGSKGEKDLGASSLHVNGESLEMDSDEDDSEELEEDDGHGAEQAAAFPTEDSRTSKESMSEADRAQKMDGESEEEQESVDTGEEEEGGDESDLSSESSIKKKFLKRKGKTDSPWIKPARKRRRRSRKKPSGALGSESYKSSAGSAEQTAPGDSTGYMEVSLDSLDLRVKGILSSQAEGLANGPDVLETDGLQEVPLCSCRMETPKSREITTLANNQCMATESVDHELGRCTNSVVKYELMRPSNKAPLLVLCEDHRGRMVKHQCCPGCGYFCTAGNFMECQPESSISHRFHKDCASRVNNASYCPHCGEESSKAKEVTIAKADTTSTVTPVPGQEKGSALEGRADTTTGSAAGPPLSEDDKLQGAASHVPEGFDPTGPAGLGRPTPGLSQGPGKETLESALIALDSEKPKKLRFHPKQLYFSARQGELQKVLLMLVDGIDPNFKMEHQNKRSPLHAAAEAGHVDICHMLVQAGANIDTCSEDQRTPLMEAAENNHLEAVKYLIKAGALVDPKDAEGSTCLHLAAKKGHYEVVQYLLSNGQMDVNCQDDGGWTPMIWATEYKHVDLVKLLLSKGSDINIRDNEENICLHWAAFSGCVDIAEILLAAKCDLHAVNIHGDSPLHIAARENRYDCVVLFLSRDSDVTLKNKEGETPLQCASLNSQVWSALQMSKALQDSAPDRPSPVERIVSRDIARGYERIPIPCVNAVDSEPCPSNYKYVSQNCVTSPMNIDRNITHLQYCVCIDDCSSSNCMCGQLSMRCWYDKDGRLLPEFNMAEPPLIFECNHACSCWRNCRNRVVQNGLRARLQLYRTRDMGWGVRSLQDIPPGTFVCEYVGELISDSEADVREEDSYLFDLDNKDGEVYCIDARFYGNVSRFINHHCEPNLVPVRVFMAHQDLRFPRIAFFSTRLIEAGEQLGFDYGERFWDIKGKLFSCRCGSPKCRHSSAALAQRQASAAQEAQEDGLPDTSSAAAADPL

human EHMT2 913-1193 = target: T2, human EHMT2 913-1193 (Homo sapiens, UniProt Q96KQ7); assay: biochemical
T2 construct: recombinant purified human EHMT2 913-1193, Viva; purchased Viva
T2 sequence (Q96KQ7 913-1193): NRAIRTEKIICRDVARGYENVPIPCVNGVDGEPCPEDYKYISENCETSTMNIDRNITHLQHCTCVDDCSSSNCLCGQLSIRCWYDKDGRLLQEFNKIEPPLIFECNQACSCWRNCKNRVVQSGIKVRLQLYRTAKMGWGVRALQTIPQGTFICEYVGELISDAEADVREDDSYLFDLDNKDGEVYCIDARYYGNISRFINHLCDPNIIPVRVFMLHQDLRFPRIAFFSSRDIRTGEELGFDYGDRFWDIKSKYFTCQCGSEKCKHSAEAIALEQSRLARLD
From the text: Biotinylated histone peptides were synthesized by Biopeptide and HPLC-purified to >95% purity. Streptavidin Flashplates and seals were purchased from PerkinElmer and 384 Well V-bottom Polypropylene Plates were from Greiner. ^3H-labeled S-adenosylmethionine (^3H-SAM) was obtained from American Radiolabeled Chemicals with a specific activity of 80 Ci/mmol. Unlabeled SAM and S-adenosylhomocysteine (SAH) were obtained from American Radiolabeled Chemicals and Sigma-Aldrich respectively. […] 384-well Flashplates and 96-well filter binding plates were read on a TopCount microplate reader (PerkinElmer). Compound serial dilutions were performed on a Freedom EVO (Tecan) and spotted into assay plates using a Thermo Scientific Matrix PlateMate (Thermo Scientific). Reagent cocktails were added by Multidrop Combi (Thermo Scientific).
General Procedure for EHMT2 Enzyme Assay on Histone Peptide Substrate. 10-point curves of test compounds were made on a Freedom EVO (Tecan) using serial 3-fold dilutions in DMSO, beginning at 2.5 mM (final top concentration of compound was 50 μM and the DMSO was 2%). A 1 μL aliquot of the inhibitor dilution series was spotted in a polypropylene 384-well V-bottom plate (Greiner) using a Thermo Scientific Matrix PlateMate (Thermo Scientific). […] Reactions were incubated for 60 minutes at room temperature and quenched with 10 μL per well of 400 μM unlabeled SAM, then transferred to a 384-well streptavidin Flashplate (PerkinElmer) and washed in a Biotek ELx-405 well washer with 0.1% Tween after 60 minutes. 384-well Flashplates were read on a TopCount microplate reader (PerkinElmer).

[1] = recombinant human EHMT2 913-1193, histone H3 1-15 peptide, 3H-SAM, balanced conditions, read-out: EHMT2 PEP (IC50 μM)

| SMILES | IC50 (EHMT1) [µM] | IC50 (human EHMT2 913-1193; [1]) [µM] | IC50 (human EHMT2 913-1193) [µM] |
| --- | --- | --- | --- |
| COc1cc2c(cc1OCCCN)N=C(N)C2(C)C [Compound 47] | 1 to 10 | 1 to 10 | – |
| CNCCCOc1cc2c(cc1OC)C(C)(C)C(N)=N2 [Compound 48] | 0.1 to 1 | 0.1 to 1 | – |
| COc1cc2c(cc1OCCCN1CC[C@H](O)C1)N=C(N)C21CCC1 [Compound 50] | < 0.1 | < 0.1 | – |
| COc1cc2nc[nH]c2cc1OCCCN1CCCC1 [Compound 51] | 1 to 10 | 1 to 10 | – |
| COc1cc2c(cc1OCCCN1CCCCC1)N=C(N)C21CCC1 [Compound 52] | 0.1 to 1 | < 0.1 | – |
| NC1=Nc2cc(OCCCN3CCCC3)c(OCC3CCCCC3)cc2C12CCC2 [Compound 61] | > 10 | > 10 | – |
| COc1cc2c(cc1OCC(O)CN1CCCC1)N=C(N)C21CCC1 (centres unmarked) [Compound 62] | < 0.1 | < 0.1 | – |
| COc1cc2c(cc1OCC(C)CN1CCCC1)N=C(N)C21CCC1 (centres unmarked) [Compound 65] | 0.1 to 1 | 0.1 to 1 | – |
| COc1cc2c(cc1OCCCN1CCCC1)C1(CCC1)C(N)=N2 [Compound 66] | 1 to 10 | 1 to 10 | – |
| COc1cc2c(cc1OCCCN1CCCC1)ncn2C(C)C [Compound 67] | > 10 | 1 to 10 | – |
| CC(C)Oc1cc2c(cc1OCCCN1CCCC1)N=C(N)C21CCC1 [Compound 68] | 1 to 10 | 1 to 10 | – |
| COc1cc2c(cc1OCCCN)N=C(N)C21CCC1 [Compound 69] | 1 to 10 | 1 to 10 | – |
| CNC1=Nc2cc(C#CC(C)N3CC4CC4C3)c(OC)cc2C12CCC2 (centres unmarked) [Compound 89] | < 0.1 | < 0.1 | – |
| CNC1=Nc2cc(C#C[C@@H](C)N3CCCCC3)c(OC)cc2C12CCC2 [Compound 94] | 0.1 to 1 | 0.1 to 1 | – |
| NC1=Nc2cc(OCCCN3CCCC3)c(-c3ccccc3)cc2C12CCC2 [Compound 135] | 1 to 10 | > 10 | – |
| NC1=Nc2cc(OCCCN3CCCC3)c(-c3ccncc3)cc2C12CCC2 [Compound 136] | 1 to 10 | > 10 | – |
| NC1=Nc2cc(OCCCN3CCCC3)c(-c3cccnc3)cc2C12CCC2 [Compound 137] | > 10 | > 10 | – |

Further lines, results first:

| IC50 (EHMT1) [µM] | IC50 (human EHMT2 913-1193; [1]) [µM] | IC50 (human EHMT2 913-1193) [µM] | SMILES |
| --- | --- | --- | --- |
| < 0.1 | < 0.1 | – | COc1cc2c(cc1OCCCN1CCC1)N=C(N)C21CCC1 [Compound 43] |
| 0.1 to 1 | 0.1 to 1 | – | COc1cc2c(cc1OCCCN(C)C)N=C(N)C2(C)C [Compound 46] |
| < 0.1 | < 0.1 | – | COc1cc2c(cc1OCCCN1CC[C@@H](O)C1)N=C(N)C21CCC1 [Compound 49] |
| < 0.1 | < 0.1 | – | COc1cc2c(cc1OCCCN(C)C)N=C(N)C21CCC1 [Compound 53] |
| 0.1 to 1 | 0.1 to 1 | – | COc1cc2c(cc1OCCCN1CCOCC1)N=C(N)C21CCC1 [Compound 54] |
| < 0.1 | < 0.1 | – | COc1cc2c(cc1OCCCN1CCCC1)N=C(N)C21CCCCC1 [Compound 55] |
| < 0.1 | – | < 0.1 | COc1cc2c(cc1OCCCN1CCCC1)N=C(N)C21CCCC1 [Compound 56] |
| 1 to 10 | 1 to 10 | – | CNCCCOc1cc2c(cc1OC)C1(CCC1)C(N)=N2 [Compound 57] |
| 1 to 10 | 1 to 10 | – | NC1=Nc2cc(OCCCN3CCCC3)c(OCc3ccccc3)cc2C12CCC2 [Compound 58] |
| < 0.1 | < 0.1 | – | CCOc1cc2c(cc1OCCCN1CCCC1)N=C(N)C21CCC1 [Compound 59] |
| 1 to 10 | 1 to 10 | – | NC1=Nc2cc(OCCCN3CCCC3)c(OCC3CCOCC3)cc2C12CCC2 [Compound 60] |
| < 0.1 | < 0.1 | – | CNC1=Nc2cc(C#CCN3CC4CC4C3)c(OC)cc2C12CCC2 (centres unmarked) [Compound 87] |
| < 0.1 | < 0.1 | – | CNC1=Nc2cc(C#C[C@H](C)N3CCCCC3)c(OC)cc2C12CCC2 [Compound 93] |
| < 0.1 | 0.1 to 1 | – | CNC1=Nc2cc(C#CCN3CCC(O)C3)c(OC)cc2C12CCC2 (centres unmarked) [Compound 95] |

Source: patent publication US20220274961A1, “SUBSTITUTED FUSED BI- OR TRI- HETEROCYCLIC COMPOUNDS AS EHMT2 INHIBITORS” (priority 2016, published 2022)
